Results from the NIST ThermoML archive (doi:10.1016/j.tca.2006.01.020).

Assay: molar heat capacity at constant pressure
Settings: 101.33 kPa, Crystal, Small (less than 1 g) adiabatic calorimetry

[Ba+2].[Ce+4].[O-2].[O-2].[O-2] [barium cerium(IV) oxide]
Settings | molar heat capacity at constant pressure [J/K/mol]
1.721 K | 0.00113
1.726 K | 0.00106
1.733 K | 0.00113
1.761 K | 0.00102
1.781 K | 0.00108
1.833 K | 0.00116
1.87 K | 0.00103
1.904 K | 0.00103
1.995 K | 0.00167
2.042 K | 0.00152
2.096 K | 0.00138
2.134 K | 0.00153
2.178 K | 0.0019
2.817 K | 0.00505
2.844 K | 0.00578
2.877 K | 0.0056
3.154 K | 0.00691
3.175 K | 0.00697
3.25 K | 0.00798
3.258 K | 0.00871
3.318 K | 0.00829
3.349 K | 0.00913
3.382 K | 0.00944
3.471 K | 0.0093
3.57 K | 0.01
3.673 K | 0.0107
3.834 K | 0.0118
3.983 K | 0.0132
4.14 K | 0.0143
4.241 K | 0.0157
4.384 K | 0.0171
4.454 K | 0.0187
4.608 K | 0.0193
4.68 K | 0.0211
4.756 K | 0.0223
4.835 K | 0.0232
4.911 K | 0.0245
4.992 K | 0.026
5.071 K | 0.0274
5.152 K | 0.0284
5.227 K | 0.0294
5.296 K | 0.0316
5.375 K | 0.0321
5.441 K | 0.0353
5.536 K | 0.0361
5.614 K | 0.0388
5.697 K | 0.0405
5.78 K | 0.0425
5.861 K | 0.0448
5.946 K | 0.0466
6.034 K | 0.0491
6.119 K | 0.0516
6.209 K | 0.0536
6.297 K | 0.0571
6.366 K | 0.057
6.457 K | 0.0616
6.548 K | 0.0639
6.647 K | 0.0675
6.739 K | 0.0705
6.841 K | 0.0743
6.93 K | 0.0778
7.04 K | 0.0831
7.13 K | 0.0857
7.24 K | 0.0907
7.34 K | 0.0935
7.45 K | 0.0993
7.55 K | 0.103
7.66 K | 0.11
7.76 K | 0.115
7.89 K | 0.123
8 K | 0.129
8.13 K | 0.138
8.25 K | 0.145
8.38 K | 0.156
8.5 K | 0.164
8.64 K | 0.176
8.77 K | 0.185
8.91 K | 0.201
9.04 K | 0.209
9.17 K | 0.221
9.32 K | 0.241
9.46 K | 0.251
9.59 K | 0.266
9.75 K | 0.289
9.92 K | 0.309
10 K | 0.318
10.08 K | 0.328
10.23 K | 0.348
10.4 K | 0.377
10.58 K | 0.4
10.76 K | 0.433
10.94 K | 0.461
11.1 K | 0.489
11.3 K | 0.534
11.48 K | 0.561
11.68 K | 0.61
